Reference: patent EP0498290B1, “Pyridobenzodiazepines, dipyrido [3,2-b:2',3'-e] [1,4]diazepines and their use in the prevention or treatment of HIV infection” (BOEHRINGER INGELHEIM PHARMACEUTICALS INC., priority 1991, dated 1992)
Values after ≈ are worked out from the molar mass of the structure shown. Like-named read-outs stand apart in the source and are kept apart here.

Experiments:
[1] = molecular target: T1, HIV-1 RT (Human immunodeficiency virus type 1 group M subtype B, UniProt P03367); experiment: Reverse Transcriptase (RT) Assay: RNA-dependent DNA polymerase activity, poly r(C)/oligo d(G) template, 3H-dGTP; format: biochemical
T1 construct: Reverse transcriptase enzyme from the LAV strain of Human Immunodeficiency Virus (HIV-1) (1) was isolated from the bacterial strain JM109; made in house; host or cells: E. coli JM109, clone pBRTprt1+ in vector pIBI21 (lac promoter, IPTG induction)
Description: Utilizing the Reverse Transcriptase (RT) Assay described below, compounds can be tested for their ability to inhibit the RNA-dependent DNA polymerase activity of HIV-1 RT. Certain specific compounds described in the Examples which appear below, were so tested.
Among the enzymes for which Human Immunodeficiency Virus (HIV-1) encodes is a reverse transcriptase (1), so-named because it transcribes a DNA copy from an RNA template. This activity can be quantitatively measured in a cell-free enzyme assay, which has been previously described (2), and is based upon the observation that reverse transcriptase is able to use a synthetic template [poly r(C) primed with oligo d(G)] to transcribe a radio-labelled, acid-precipitable DNA strand utilizing ^3H-dGTP as a substrate.
Reverse transcriptase enzyme from the LAV strain of Human Immunodeficiency Virus (HIV-1) (1) was isolated from the bacterial strain JM109 (3) expressing the DNA clone pBRTprt1+ (2) which is under the control of the lac promotor in the expression vector pIBI21 (4). An overnight culture grown in 2XYT medium (37°C, 225 rpm) (5) supplemented with 100 µg/ml ampicillin for positive selection is inoculated at a 1:40 dilution into M9 medium supplemented with 10µg/ml thiamine, 0.5% casamino acids, and 50 µg/ml ampicillin (5). The culture is incubated (37°C, 225 rpm) until it reaches an OD540 of 0.3-0.4. At that time the repressor inhibitor IPTG (isopropyl β-D-thiogalactopyranoside) is added to 0.5mM, and the mixture is incubated for 2 additional hours. Bacteria are pelleted, resuspended in a 50mM Tris, 0.6mM EDTA, 0.375M NaCl buffer and digested by the addition of lysozyme (1mg/ml) for 30 minutes on ice. The cells are lysed by the addition of 0.2% NP-40 and brought to 1M NaCl.
After removal of the insoluble debris by centrifugation, the protein is precipitated by the addition of 3 volumes of saturated aqueous ammonium sulfate. The enzyme is pelleted, resuspended in RT buffer (50mM Tris pH 7.5, 1mM EDTA, 5mM DTT, 0.1% NP-40, 0.1M NaCl, and 50% glycerol), and stored at -70°C for further use.
b) Composition of 2X concentrated stock reaction mixture used in testing of compounds 1 to 15
Composition of 2X concentrated stock reaction mixture used in testing compounds 16 and 17
The 2X concentrated stock reaction mixture is aliquoted and stored at - 20°C. The mixture is stable and thawed for use in each assay. This enzyme assay has been adapted to a 96 well microtiter plate system, and has been previously described (6). Tris buffer (50 mM, pH 7.4), vehicle (solvent diluted to match the compound dilution), or compounds in vehicle are dispensed into 96-well microtiter plates (10µl/well; 3 wells/compound). The HIV-1 RT enzyme is thawed, diluted in 50mM Tris pH 7.8 (50mM Tris pH 7.4 in the case of compounds 16 and 17) so that fifteen µl of diluted enzyme contain 0.001 Unit (one unit is that amount of enzyme to transform 1 micromole of substrate per minute at 25°C), and fifteen µl are dispensed per well. Twenty µl of 0.12-0.5M EDTA are added to the first three wells of the microtiter plate. EDTA chelates the Mg^++ present and prevents reverse transcription. This group serves as background polymerization which is subtracted from all other groups. Twenty-five ul of the 2X reaction mixture are added to all wells and the assay is allowed to incubate at room temperature for 60 minutes. The assay is terminated by precipitating the DNA in each well with 50µl of 10% trichloracetic acid (TCA) (10% w/v) in sodium pyrophosphate (1% w/v). The microtiter plate is incubated for 15 minutes at 4°C and the precipitate is fixed onto #30 glass fiber paper (Schleicher & Schuell) using a Skatron semi-automatic harvester. The filters are then washed with additional TCA (5%) containing sodium pyrophosphate (1%), rinsed with aqueous ethanol (70%), dried, and transferred to scintillation vials (6). […]

[2] = test system: HTLV-IIIB strain of HIV-1; experiment: Human T-Cell Culture Assay (syncytia formation in c8166 cells); format: cell-based; details: Human immunodeficiency virus 1, IIIB, 96 h, syncytia read four days after virus challenge
Description: In order to confirm that compounds which are active in the RT Assay also have the ability to inhibit HIV replication in a living system, compounds according to the invention were also tested in the human T-Cell Culture Assay described below.
Assay Theory: Formation of syncytia is a feature of in vitro cultures of CD4+ T-cells infected with HIV-1. In this assay, T-cells are treated with a putative replication inhibiting compound and then infected with HIV-1. After incubation, the culture is checked for the formation of syncytia. The absence or reduction in the number of syncytia is used as a measure of the test compound's ability to inhibit HIV replication.
Assay Method: The target cells, designated c8166, are a subclone of human lymphoma cells of T-cell origin and are established at an initial density of 5x10^4 per 100 ul in RPMI 1640 (+ 10% fetal bovine serum) culture medium in 96 well flat bottom plates. A selected amount of test compound, dissolved in DMSO, is included. After 24 hours, 50-100 TCID50's (the dose that results in induced effect in 50% of test cultures) of the HTLV-IIIB strain of HIV-1 (2) are inoculated into each culture. Control cultures receive compound or virus only. Four days after virus challenge, cultures are visually examined for the frequency and distribution of virus-induced giant cell syncytia. The percent inhibition by the test compound is determined by comparison with control values. Confirmation of the presence or absence of virus replication is accomplished by harvesting the cell free culture fluids from all experimental groups to determine the presence or absence of infectious progeny through the induction of syncytia formation in secondary human T-cell cultures after 3 days.

[3] = in vitro; format: cell-based; details: human, c8166 cells
Description: In order to roughly assess the cytotoxicity of the compounds provided by the invention, several such compounds were tested in the MTT Cellular Cytotoxicity Assay described below. Compounds having a relatively high EC50 are preferred.
The MTT [3-(4,5-dimethylthiazol-2-yl)-2,5 diphenyl tetrazolium bromide) assay is based on cleavage of tetrazolium bromide by metabolically active cells, resulting in a highly quantitative blue color. This assay has been previously described (1) but has been optimized for the purposes of the testing reported herein.
The c8166 cell line (2), an established human lymphoma suspension cell line grown in RPMI 1640 supplemented with 10% fetal bovine serum, is used as the target cell line in the assay. Cells (100µl) are plated in microtest plate wells at a concentration of 10^5 cells per ml in the presence of varying concentrations of inhibitor. The cells are incubated at 37°C in a humidified CO2 incubator. Five days later, 20µl of MTT (5mg/ml in RPMI 1640, sonicated, 0.2 micron filtered, and stored at 4°C) is added to each well. After 4 hours additional incubation at 37°C, 60µl of Triton-X is added to each well and thoroughly mixed to aid the solubilization of the crystals. Absolute ethanol (5µl) is added to each well and the resulting mixture is incubated for 30 minutes at 60°C and immediately read on a plate reader (Dynatech) at a wavelength of 570nm. […]

[4] = pH 7.4, read-out: RT Assay % inhibition @ 10 µg/ml
[5] = 10 µg/ml, reaction mixture for compounds 1 to 15 (Tris pH 7.8, KCl, human serum albumin, 6µM 3H-dGTP in 2X mix), read-out: RT Assay % inhibition @ 10 µg/ml

Row | Compound | inhibition at 10 µg/mL [1, 5] [%] | inhibition at 3 µg/mL [2] [%] | further results
1 | COC1=Nc2ccccc2N(C)c2ncccc21 [Example 17, 5-Methoxy-11-methyl-11H-pyrido[2,3-b][1,5]benzodiazepine] |  |  | inhibition at 10 µg/mL [1, 4]: 82%
2 | 2.4-Dimethyl-11-ethyl-6-pyrrolidino-11H-dipyrido[3,2-b:2',3'-e][1,4]diazepine [Example 10] |  |  | RT Assay % inhibition @ 10 µg/ml ([1]; 10 µg/ml, reaction mixture for compounds 1 to 15 (Tris pH 7.8, KCl, human serum albumin, 6µM 3H-dGTP in 2X mix)): 91%
3 | CCOC1=Nc2c(C)cccc2Nc2ncccc21 [Example 16, 5-Ethoxy-7-methyl-11H-pyridol[2,3-b][1,5]benzodiazepine] |  |  | inhibition at 10 µg/mL [1, 4]: 59%
4 | Cc1ccnc2c1N=C(n1ccnc1)c1cccnc1N2C1CC1 [Example 9] | 97 |  | 
5 | Cc1ccnc2c1N=C(Cl)c1cccnc1N2C1CC1 [Example 1, 6-Chloro-11-cyclopropyl-4-methyl-11H-dipyrido[3,2-b:2',3'-e][1,4]diazepine] |  | > 90 | CC50 at 120 h [3]: > 5 µg/mL
6 | Cc1ccnc2c1N=C(S(C)(=O)=O)c1cccnc1N2C1CC1 [Example 14, 11-Cyclopropyl-4-methyl-6-methylsulfonyl-dipyrido[3,2-b:2',3'-e][1,4]diazepine] | 100 |  | 
7 | CCN1c2ncccc2C(C#N)=Nc2c(C)cc(C)nc21 [Example 3, 6-Cyano-2,4-dimethyl-11-ethyl-11H-dipyrido[3,2-b:2',3'-e][1,4]diazepine] |  | > 50 | 
8 | CCOC(=O)CSC1=Nc2c(C)ccnc2N(C2CC2)c2ncccc21 [Example 5] | 98 |  | 
9 | Cc1ccnc2c1N=C(C#N)c1cccnc1N2C1CC1 [Example 2, 6-Cyano-11-cyclopropyl-4-methyl-11H-dipyrido[3,2-b:2',3'-e][1,4]diazepine] |  | > 50 | CC50 at 120 h [3]: 28 µg/mL (≈ 102 µM)
